Experimental data reported in patent US11673883B2, “Heterocyclic compounds as immunomodulators” (Incyte Corporation, priority 2016, dated 2023).

What follows are compounds tested against PD-1/PD-L1 protein/protein interaction (Homo sapiens (Human), UniProt Q9NZQ7) (assay: PD-1/PD-L1 Homogeneous Time-Resolved Fluorescence (HTRF) Binding Assay). Settings: recombinant human PD-L1 (19-238) His-tag, human PD-1 (25-167) Fc tag; 25° C., PBS pH 7.4.
Protocol: Example A. PD-1/PD-L1 Homogeneous Time-Resolved Fluorescence (HTRF) Binding Assay
The assays were conducted in a standard black 384-well polystyrene plate with a final volume of 20 μL. Inhibitors were first serially diluted in DMSO and then added to the plate wells before the addition of other reaction components. The final concentration of DMSO in the assay was 1%. The assays were carried out at 25° C. in the PBS buffer (pH 7.4) with 0.05% Tween-20 and 0.1% BSA. Recombinant human PD-L1 protein (19-238) with a His-tag at the C-terminus was purchased from AcroBiosystems (PD1-H5229). Recombinant human PD-1 protein (25-167) with Fc tag at the C-terminus was also purchased from AcroBiosystems (PD1-H5257). PD-L1 and PD-1 proteins were diluted in the assay buffer and […] was added to the plate well. Plates were centrifuged and proteins were preincubated with inhibitors for 40 minutes. The incubation was followed by the addition of 10 μL of HTRF detection buffer supplemented with Europium cryptate-labeled anti-human IgG (PerkinElmer-AD0212) specific for Fc and anti-His antibody conjugated to SureLight®-Allophycocyanin (APC, PerkinElmer-AD0059H). After centrifugation, the plate was incubated at 25° C. for 60 min. before reading on a PHERAstar FS plate reader (665 nm/620 nm ratio). Final concentrations in the assay were […], 10 nM PD-L1, 1 nM europium anti-human IgG and 20 nM anti-His-Allophycocyanin. IC50 determination was performed by fitting the curve of percent control activity versus the log of the inhibitor concentration using the GraphPad Prism 5.0 software.

Sequence of PD-1/PD-L1 protein/protein interaction (Q9NZQ7 19-238): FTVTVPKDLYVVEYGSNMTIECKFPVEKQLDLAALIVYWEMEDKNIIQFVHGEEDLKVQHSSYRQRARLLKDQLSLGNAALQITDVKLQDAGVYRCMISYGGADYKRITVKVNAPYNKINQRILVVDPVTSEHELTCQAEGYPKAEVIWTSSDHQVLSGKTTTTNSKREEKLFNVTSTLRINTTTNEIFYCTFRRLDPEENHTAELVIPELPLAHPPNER

SMILES | IC50
C[C@@H]1CN(C2CCN(c3cccc(-c4ccc5c(c4)OCCO5)c3C#N)CC2)C[C@H]1CO (relative stereo) [Example 9, 2-(2,3-dihydrobenzo[b][1,4]dioxin-6-yl)-6-(4-(trans-3-(hydroxymethyl)-4-methylpyrrolidin-1-yl)piperidin-1-yl)benzonitrile] | ≤ 100 nM
Cc1c(-c2ccccc2)cccc1N1CCC(NC2CCC(C#N)CC2)CC1 (single isomer, unassigned) [40 (peak 1), 4-(1-(2-methylbiphenyl-3-yl)piperidin-4-ylamino)cyclohexane-carbonitrile] | ≤ 100 nM
Cc1c(-c2ccccc2)cccc1N1CCC(NC2CCC(C#N)CC2)CC1 (single isomer, unassigned) [40 (peak 2), 4-(1-(2-methylbiphenyl-3-yl)piperidin-4-ylamino)cyclohexane carbonitrile] | ≤ 100 nM
Cc1c(-c2ccccc2)cccc1N1CCC(NC2CCC(C(=O)O)CC2)CC1 (single isomer, unassigned) [41 (peak 1), 4-(1-(2-methylbiphenyl-3-yl)piperidin-4-ylamino)cyclohexane-carboxylic acid] | ≤ 100 nM
Cc1c(-c2ccccc2)cccc1N1CCC(NC2CCC(C(=O)O)CC2)CC1 (single isomer, unassigned) [41 (peak 2), 4-(1-(2-methylbiphenyl-3-yl)piperidin-4-ylamino)cyclohexane-carboxylic acid] | ≤ 100 nM
Cc1c(-c2ccccc2)cccc1N1CCC(NC2CCCC(C(=O)O)C2)CC1 (single isomer, unassigned) [46 (peak 1), 3-(1-(2-methylbiphenyl-3-yl)piperidin-4-ylamino)cyclohexane carboxylic acid] | ≤ 100 nM
Cc1c(-c2ccccc2)cccc1N1CCC(NC2CCCC(C(=O)O)C2)CC1 (single isomer, unassigned) [46 (peak 2), 3-(1-(2-methylbiphenyl-3-yl)piperidin-4-ylamino)cyclohexane carboxylic acid] | ≤ 100 nM
Cc1c(-c2ccccc2)cccc1N1CCC(NC2CCC(C(=O)O)(c3ccc(Cl)cc3)CC2)CC1 (single isomer, unassigned) [47 (peak 1), 1-(4-chlorophenyl)-4-(1-(2-methylbiphenyl-3-yl)piperidin-4-ylamino)cyclohexane carboxylic acid] | ≤ 100 nM
Cc1c(-c2ccccc2)cccc1N1CCC(NC2CCC(C(=O)O)(c3ccc(Cl)cc3)CC2)CC1 (single isomer, unassigned) [47 (peak 2), 1-(4-chlorophenyl)-4-(1-(2-methylbiphenyl-3-yl)piperidin-4-ylamino)cyclohexane-carboxylic acid] | ≤ 100 nM
N#Cc1c(-c2ccc3c(c2)OCCO3)cccc1N1CCC(N[C@H]2C[C@@H](O)C2)CC1 [Example 1, 2-(2,3-dihydro-1,4-benzodioxin-6-yl)-6-{4-[(cis-3-hydroxycyclobutyl)amino]piperidin-1-yl}benzonitrile] | ≤ 100 nM
N#Cc1c(-c2ccc3c(c2)OCCO3)cccc1N1CCC(NC2CC2)CC1 [Example 2, 2-(4-(cyclopropylamino)piperidin-1-yl)-6-(2,3-dihydrobenzo[b][1,4]dioxin-6-yl)benzonitrile] | ≤ 100 nM
CN(C)C1CCN(c2cccc(-c3ccc4c(c3)OCCO4)c2C#N)CC1 [Example 3, 2-(2,3-dihydrobenzo[b][1,4]dioxin-6-yl)-6-(4-(dimethylamino)piperidin-1-yl)benzonitrile] | 100 to 500 nM
N#Cc1c(-c2ccc3c(c2)OCCO3)cccc1N1CCC(NCC2(CO)CC2)CC1 [Example 4, 2-(2,3-dihydrobenzo[b][1,4]dioxin-6-yl)-6-(4-((l-(hydroxymethyl)cyclopropyl)methylamino)piperidin-1-yl)benzonitrile] | ≤ 100 nM
Cn1cc(CCNC2CCN(c3cccc(-c4ccc5c(c4)OCCO5)c3C#N)CC2)cn1 [Example 5, 2-(2,3-dihydrobenzo[b][1,4]dioxin-6-yl)-6-(4-(2-(1-methyl-1H-pyrazol-4-yl)ethylamino)piperidin-1-yl)benzonitrile] | ≤ 100 nM
CC(C)(CO)CNC1CCN(c2cccc(-c3ccc4c(c3)OCCO4)c2C#N)CC1 [Example 6, 2-(2,3-dihydrobenzo[b][1,4]dioxin-6-yl)-6-(4-(3-hydroxy-2,2-dimethylpropylamino)piperidin-1-yl)benzonitrile] | ≤ 100 nM
N#Cc1c(-c2ccc3c(c2)OCCO3)cccc1N1CCC(NC2CCOCC2)CC1 [Example 7, 2-(2,3-dihydrobenzo[b][1,4]dioxin-6-yl)-6-(4-(tetrahydro-2H-pyran-4-ylamino)piperidin-1-yl)benzonitrile] | ≤ 100 nM
N#Cc1c(-c2ccc3c(c2)OCCO3)cccc1N1CCC(N[C@H]2C[C@@H](CO)C2)CC1 [Example 8, 2-(2,3-dihydrobenzo[b][1,4]dioxin-6-yl)-6-(4-(cis-3-(hydroxymethyl)cyclobutyl-amino)piperidin-l-yl)benzonitrile] | ≤ 100 nM
N#Cc1c(-c2ccc3c(c2)OCCO3)cccc1N1CCC(NC2CC3(CCC3)C2)CC1 [Example 10, 2-(2,3-dihydrobenzo[b][1,4]dioxin-6-yl)-6-(4-(spiro[3.3]heptan-2-ylamino)piperidin-l-yl)benzonitrile] | ≤ 100 nM

Other lines, results leading:

IC50 | SMILES
≤ 100 nM | Cc1c(-c2ccccc2)cccc1N1CCC(NC2CCc3c(c(C(=O)O)nn3C)C2)CC1 (racemic) [Example 38, 1-methyl-5-(1-(2-methylbiphenyl-3-yl)piperidin-4-ylamino)-4,5,6,7-tetrahydro-1H-indazole-3-carboxylic acid]
≤ 100 nM | Cc1c(-c2ccccc2)cccc1N1CCC(NC2CCOC2)CC1 (racemic) [Example 42, 1-(2-methylbiphenyl-3-yl)-N-(tetrahydrofuran-3-yl)piperidin-4-amine]
≤ 100 nM | COCC(C)NC1CCN(c2cccc(-c3ccccc3)c2C)CC1 (racemic) [Example 44, N-(1-methoxypropan-2-yl)-1-(2-methylbiphenyl-3-yl)piperidin-4-amine]
≤ 100 nM | N#Cc1c(-c2ccc3c(c2)OCCO3)cccc1N1CCC(N[C@@H]2CCCC[C@H]2CO)CC1 (relative stereo) [Example 12, 2-(2,3-dihydrobenzo[b][1,4]dioxin-6-yl)-6-(4-(trans-2-(hydroxymethyl)cyclohexylamino)piperidin-1-yl)benzonitrile]
≤ 100 nM | N#Cc1c(-c2ccc3c(c2)OCCO3)cccc1N1CCC(NC[C@@H]2CCCC[C@@H]2O)CC1 (relative stereo) [Example 19, 2-(2,3-dihydro-1,4-benzodioxin-6-yl)-6-[4-({[cis-2-hydroxycyclohexyl]methyl}amino)piperidin-1-yl]benzonitrile]
≤ 100 nM | Cc1c(-c2ccccc2)cccc1N1CCC(N[C@H]2CCC[C@H]2CO)CC1 (relative stereo) [Example 34, (cis-2-(1-(2-methylbiphenyl-3-yl)piperidin-4-ylamino)cyclopentyl) methanol]
≤ 100 nM | COc1ccc(C2(CNC3CCN(c4cccc(-c5ccc6c(c5)OCCO6)c4C#N)CC3)CCOCC2)cc1 [Example 11, 2-(2,3-dihydrobenzo[b][1,4]dioxin-6-yl)-6-(4-((4-(4-methoxyphenyl)tetrahydro-2H-pyran-4-yl)methylamino)piperidin-1-yl)benzonitrile]
≤ 100 nM | CO[C@H]1C[C@H](NC2CCN(c3cccc(-c4ccc5c(c4)OCCO5)c3C#N)CC2)C1 [Example 13, 2-(2,3-dihydrobenzo[b][1,4]dioxin-6-yl)-6-(4-(trans-3-methoxycyclobutylamino)piperidin-1-yl)benzonitrile]
≤ 100 nM | CO[C@H]1C[C@@H](NC2CCN(c3cccc(-c4ccc5c(c4)OCCO5)c3C#N)CC2)C1 [Example 14, 2-(2,3-dihydrobenzo[b][1,4]dioxin-6-yl)-6-(4-(cis-3-methoxycyclobutylamino)piperidin-1-yl)benzonitrile]
≤ 100 nM | N#Cc1c(-c2ccc3c(c2)OCCO3)cccc1N1CCC(N2CCC(CCO)C2)CC1 (centres unmarked) [Example 15, 2-(2,3-dihydrobenzo[b][1,4]dioxin-6-yl)-6-(4-(3-(2-hydroxyethyl)pyrrolidin-1-yl)piperidin-1-yl)benzonitrile]
≤ 100 nM | N#Cc1c(-c2ccc3c(c2)OCCO3)cccc1N1CCC(NC2CCCOC2)CC1 (centres unmarked) [Example 16, 2-(2,3-dihydrobenzo[b][1,4]dioxin-6-yl)-6-(4-(tetrahydro-2H-pyran-3-ylamino)piperidin-1-yl)benzonitrile]
≤ 100 nM | N#Cc1c(-c2ccc3c(c2)OCCO3)cccc1N1CCC(NC2CCCC2CO)CC1 (stereo not drawn) [Example 17, 2-(2,3-dihydrobenzo[b][1,4]dioxin-6-yl)-6-(4-(cis-2-(hydroxymethyl)cyclopentylamino)piperidin-l-yl)benzonitrile]
≤ 100 nM | N#Cc1c(-c2ccc3c(c2)OCCO3)cccc1N1CCC(N[C@H]2C[C@H](O)C2)CC1 [Example 18, 2-(2,3-dihydrobenzo[b][1,4]dioxin-6-yl)-6-(4-(trans-3-hydroxycyclobutylamino)piperidin-1-yl)benzonitrile]
≤ 100 nM | N#Cc1c(-c2ccc3c(c2)OCCO3)cccc1N1CCC(NC2CCCCC2)CC1 [Example 20, 2-(4-(cyclohexylamino)piperidin-1-yl)-6-(2,3-dihydrobenzo[b][1,4]dioxin-6-yl)benzonitrile]
